# Entries after “also recorded” stand apart in the source; their conditions may differ.
# How the values were obtained:
# leukemia L 1210 [1] = assay: Anti-tumour activity, leukemia L 1210, i.p. graft, i.p. treatment
# Experimental: […] females (CNRS, Orleans) of 20 to 22 g
# (a) i.p. graft--i.p. treatment
# 10^5 cells were grafted intraperitoneally on D0 and intraperitoneal treatment was carried out 24 hours later, D1, in one single injection.
# PHD and PHM were suspended in a 4% Klucel (hydroxy propyl cellulose) solution (the word "Klucel" is a registered trademark of Hercules Incorporated, Delaware, U.S.A.).
# The solutions of these compounds were prepared extemporaneously. The increase in life span, ILS (%), were calculated in comparison with the controls by the following formula: [formula] Deaths were recorded until day 30 for L 1210 tumour and until day 60 for S180 tumour.
# [2] = tested on: renal and hepatic parenchyma; assay: Renal and hepatic toxicity; format: in vivo, mouse (Swiss female)
# Experimental: It was thus of interest to compare the effects of the novel compound of the invention with those of the already known compounds listed above on the kidney and the liver, i.e. the organs in which the greatest amount of platinum accumulates.
# Swiss female mice (Evic-Ceba, Bordeaux) of 20 to 22 g were treated by intraperitoneal route D0 and then sacrificed on D1, D4 and D10.
# Slices 5 microns thick were coloured with hemalun eosine stain.
# mouse = assay: Acute toxicity in the mouse; format: in vivo, mouse (Swiss female); details: for loss of weight on the 4th day: i.p.
# Experimental: (§1) Acute toxicity, one single injection of the compound, was measured using Swiss female mice (Evic-Ceba, Bordeaux) of 21 to 23 g. and Sprague-Dawley rats. Ten animals were treated for each dose studied.
# [3] = tested on: baboon (ear, Corti organ); assay: Ototoxicity test in the baboon (auditory potentials, echocochleography); format: in vivo; details: baboon No 3, 200 mg/kg, D31
# Experimental: An ototoxicity test was carried out on baboon No. 3 (200 mg/kg) on D31. This test comprised the following: (a) Registering the auditory potentials when the ear was submitted to 1500 stimuli at 90, 80, 70, 60, 50, 40, 30, 20 and 10 decibels. The results gave the latency times for conduction from the ear to the brain. (b) Performing the same kind of test by echocochleography. This analysis was much more accurate than the previous one because it was only carried out in the Corti organ (cochlea). Frequencies of 8000, 4000, 2000 and 1000 Hertz at 90, 70, 50, 30, 20 and 10 decibels were used. Measurements were made using a Racia Medelec Empled MK4 1026. […] The properties of PHIC compared to those of PDD can be summarized as follows: […]
# abdominal viscera = assay: Peritonitis (adhesion and hardening of abdominal viscera); format: in vivo, mouse
# Experimental: (§2) The solutions of these compounds were prepared extemporaneously.
# As discussed above this problem seems to be linked to the presence of the 1,2-diaminocyclohexane ligand.
# DNA = assay: Platinum fixed on DNA of L 1210 cells in vivo; set-up: species or system mouse (DBA/2); details: PDD 9 mg/kg, PHIC 150 mg/kg; two hours after treatment on D3
# Experimental: DBA/2 mice received 10^6 L 1210 cells on D0 and were treated three days later with an amount of platinum compound equal to the LD0 in the healthy mouse. Two hours after treatment on D3, the animals were sacrificed. […] Platinum was monitored by atomic absorption for whole cells and also on the DNA which was purified by phenol extraction. […] Under these conditions, one fixed platinum atom per 3000 nucleotides was found, i.e. a total of 1% of the amount which penetrated the cells was complexed to DNA. […] 10^-16 of platinum per cell.
# leukemia L 1210 [4] = assay: Anti-tumour activity, leukemia L 1210, i.p. graft, i.v. treatment; format: in vivo, mouse; details: for ILS: i.p. graft 10^5 cells
# Experimental: (§3) I. […] L 1210: Ascite and Solid
# (b) i.p. graft--i.v. treatment
# as §2
# rat = assay: Acute toxicity in the rat; format: in vivo, rat (Sprague-Dawley)
# Experimental: as §1
# L 1210 cells = assay: Cytotoxicity on L 1210 cells in culture; format: cell-based; details: read-out: ID50 (reduces by 50% the rate of growth of the cells); usually 24 to 48 hours contact
# leukemia L 1210 [5] = assay: Anti-tumour activity, leukemia L 1210, s.c. graft, i.p. treatment; format: in vivo, mouse; details: s.c. graft 10^6 cells
# Experimental: as §3
# (c) s.c. graft--i.p. treatment
# 10^6 cells were grafted under the skin behind the head on D0 and intraperitoneal treatment was carried out in one single injection either on D1 or on D4.
# as §2
compound,measurement,setting,value
"NC1CCCCC1N.O=C([O-])CC(C(=O)[O-])C([O-])C(=O)[O-].[H+].[H+].[Pt+2] (stereo not drawn) [PHIC, cis-isocitrato (1,2-diaminocyclohexane) platinum (II)]",ILS,"leukemia L 1210 [1]; 5 mg/kg, single i.p. on D1",16%
same,ILS,"leukemia L 1210 [1]; 10 mg/kg, single i.p. on D1",40%
same,ILS,"leukemia L 1210 [1]; 25 mg/kg, single i.p. on D1",59%
same,ILS,"leukemia L 1210 [1]; 50 mg/kg, single i.p. on D1",79%
same,toxic death,"leukemia L 1210 [1]; 100 mg/kg i.p., excluded from ILS calculation",one toxic death
same,ILS,"leukemia L 1210 [1]; 100 mg/kg, single injection on D1",129%
same,Survivals,"leukemia L 1210 [1]; L 1210, 5 mg/kg i.p. on D1, day 30",0%
same,Survivals,"leukemia L 1210 [1]; L 1210, 10 mg/kg i.p. on D1, day 30",0%
same,Survivals,"leukemia L 1210 [1]; L 1210, 25 mg/kg i.p. on D1, day 30",0%
same,Survivals,"leukemia L 1210 [1]; L 1210, 50 mg/kg i.p. on D1, day 30",0%
same,Survivals,"leukemia L 1210 [1]; L 1210, 100 mg/kg i.p. on D1, day 30",20%
same,anti-tumour activity (in words),leukemia L 1210 [1]; leukemia L 1210,Very marked anti-tumor activity; also recorded: exerts the anti-tumour activity
same,Surviving animals having received L 1210 leukaemia and S 180 sarcoma,leukemia L 1210 [1]; summary for L 1210 and S 180,Yes
same,nephrotoxicity,"[2]; LD0 level, mice",No
same,renal lesion,[2]; at a dose 20 times greater than that of PDD,does not cause any renal lesion
same,renal and hepatic alterations,"[2]; i.p. at ~LD0 (mg/kg): PDD 8, PAC 100, PHM 50, PHD 4, PHS 5, PHC 120, PHIC 150, D1, D4, D10",did not provoke any significant alterations
same,loss of weight on the 4th day,mouse; LD10 dose,3.5 g
same,loss of weight on the 4th day,mouse; LD50 dose,4.3 g
same,toxicity (in words),mouse; mice,Extremely low toxicity
same,LD10,"mouse; mouse, I.P.",135 mg/kg
same,LD50,"mouse; mouse, I.P.",236 mg/kg
same,LD90,"mouse; mouse, I.P.",365 mg/kg
same,LD10,"mouse; mouse, I.V.",348 mg/kg
same,LD50,"mouse; mouse, I.V.",421 mg/kg
same,LD90,"mouse; mouse, I.V.",489 mg/kg
same,LD50,"mouse; mouse, P.O.",> 1 000 mg/Kg
same,LD10 (dose killing 10% of the animals),"mouse; mouse, one single injection, Table V",153 mg/kg
same,ototoxic effect,[3],No ototoxic effect was detected
same,peritonitis,"abdominal viscera; healthy mice, i.p. injection",also observed in healthy mice
same,"occurrence of peritonitis in relation to the 1,2-diaminocyclohexane ligand",abdominal viscera; i.p.,"seems to be correlated with the presence of 1,2-diaminocyclohexane"
same,peritonitis / long-term toxic effect,abdominal viscera; i.v. administration,never encountered; also recorded: not observed
same,peritonitis,"abdominal viscera; tumour-bearing mice, i.p. treatment",most of the mice reaching 30 days of survival treatment with PHM and PHIC developed peritonitis; also recorded: causes peritonitis
same,Number of fixed platinum atoms per nucleotide on DNA,DNA,1/3500
same,amount that penetrated the cells which was complexed to DNA,DNA,1%
same,nucleotides per one fixed platinum atom,DNA,3500 nucleotides
same,anti-tumour activity (in words),"leukemia L 1210 [4]; graft intraperitoneal, treatment intravenous",active
same,ILS,leukemia L 1210 [4]; 50 mg/kg i.v. on D1,25%
same,ILS,leukemia L 1210 [4]; 125 mg/kg i.v. on D1,41%
same,LD10,rat; I.P.,61 mg/kg
same,LD50,rat; I.P.,143 mg/kg
same,LD90,rat; I.P.,278 mg/kg
same,LD10,rat; I.V.,111 mg/kg
same,LD50,rat; I.V.,173 mg/kg
same,LD90,rat; I.V.,244 mg/kg
same,LD50,rat; P.O.,> 1 000 mg/Kg
same,IC50,L 1210 cells,420 nM
same,ILS,leukemia L 1210 [5]; 62.5 mg/kg i.p. on D1,26%
same,ILS,leukemia L 1210 [5]; 62.5 mg/kg i.p. on D4,17%
same,ILS,leukemia L 1210 [5]; 125 mg/kg i.p. on D4,50%
